In patent US20210380586A1, “2-INDOLYL IMIDAZO[4,5-D]PHENANTHROLINE POLYMORPHS AND COMPOSITIONS REGARDING THE SAME” (Aptose Biosciences Inc., priority 2020, published 2021):

Assay: IV formulation end user compatibility study, microscopic particulate examination
Assay type: physicochemical
Experimental: For the high concentration, […] of Compound I-tetrahydrate (4.0 mg/mL) was injected into a BBraun partial additive bag (PAB) for IV administration, attached to a Y-infusion set line. The other end of the Y infusion set line was connected to Lactated Ringer's Solution. Infusion is performed via the Y infusion set, such that the drug product is mixed with Lactated Ringer's Solution directly prior to administration. A total volume of 100 mL drug product at a rate of 50 mL/hr and 200 mL Lactated Ringer's Solution at a rate of 100 mL/hr were administered in a 2:1 ratio over a two hour period, to deliver 300 mL of eluent at a rate of 150 mL/hr.
The evaluation of particulate matter from collected IV samples was therefore performed by microscopic visual examination utilizing approximately 25 μL of IV co-infusion eluate, collected directly from the terminal end of the IV line, deposited on a microscope slide. […] The specific microscope settings used are shown below. A Positive Control sample containing a USP Particle Count Reference Standard consisting of spherical particles of known sizes between 10 μm and 15 μm (USP reference standard, Cat. No.: 1500502, lot #L0L142) was visualized under the microscope using a 10×10 lens.

[1] = 4.0 mg/mL, Y-infusion with Lactated Ringer's Solution 2:1, 120 min simulated infusion run

Structure (SMILES): Cc1[nH]c2ccc(F)cc2c1-c1nc2c3cccnc3c3ncccc3c2[nH]1 [Compound I-hydrate Form 2]
- filter clogging or stoppage of the infusion pump [1]: No filter clogging
- particles by microscope examination in eluent samples [1]: no particles were detected
- time material may be infused without filter clogging ("Y-Line" infusion set): up to 2 hours
